Test results taken from patent publication US4167570A, “2-Methyl-6-alkyl-11-aminoalkyl-6,11-dihydro-5H-pyrido(2,3-B)(1,5)benzodia zepin-5-ones and salts thereof” (Boehringer Ingelheim GmbH, priority 1976, dated 1979).
Structures can show the parent of a compound that is named as a salt.

Columns and labels:
[1] = system: bronchial secretion in guinea pigs; experiment: expectorant (bronchosecretolytic) activity, increase in bronchial secretion in anesthetized guinea pigs, peroral administration (Perry & Boyd, modified by Engelhorn & Puschmann); type: in vivo; settings: two-hour period, vs untreated controls, male guinea pigs
Method: (§1) The bronchosecretolytic activity and the intravenous acute toxicity of the compounds of this invention and of certain related 2-unsubstituted analogs disclosed in German Offenlegungsschrift No. 2,424,811 were ascertained by the standard test methods described below.
The tests for expectorant activity were carried out according to the method of PERRY, W. and BOYD, E.M.; J. Pharmacol. exp. Therap. 73, 65 (1941), as modified by ENGELHORN, R. and PUSCHMANN, S.; Arzneimittel Forsch. 21, 1045 (1971), on male guinea pigs with a body weight of 450 to 550 gm, which were anesthetized by i.p.-administration of a * 25% urethane solution (1,0 g/kg). The substances were administered perorally at the indicated dosages levels, each in 2 ml of distilled water, by means of an esophageal tube. 5 tests were carried out per dosage. The increase in bronchial secretion was calculated from the amount secreted within a two-hour period after administration of the test compound in comparison with the values obtained from untreated control animals, also within a two-hour period.

[2] = acute toxicity, LD50 in the mouse after intravenous administration; settings: in vivo, i.v., NMRI-mice both sexes, deaths within 14 days, Litchfield and Wilcoxon
Method: as §1
The acute toxicity was tested in NMRI-mice of both sexes having a body weight of 20 gm after intravenous administration. 0.1 ml of an aqueous 0.9% sodium chloride solution/10 gm of animal was used as a vehicle. The LD50 was calculated according to LITCHFIELD and WILCOXON from the percentage of the animals which died within 14 days after administration of various dosages.

Compound	Average percentage change in amount of bronchial secretion in guinea pigs ([1]; 0.05 μg/kg per os)	Average percentage change in amount of bronchial secretion in guinea pigs ([1]; 0.005 μg/kg per os)	Average percentage change in amount of bronchial secretion in guinea pigs ([1]; 0.5 μg/kg per os)	LD50 at 336 h [2]
CC(C)N(CCCN1c2ccccc2N(C)C(=O)c2cccnc21)C(C)C.Cl [Z, 6,11-Dihydro-11-(3-diisopropylamino-propyl)-6-methyl-5H-pyrido[2,3-b][1,5]benzodiazepin-5-one hydrochloride]	+27%			
CCN(CC)CCCN1c2ccccc2N(C)C(=O)c2cccnc21.Cl [X, 11-(3-Diethylamino-propyl)-6,11-dihydro-6-methyl-5H-pyrido[2,3-b][1,5]benzodiazepin-5-one hydrochloride]	+13%	+0%	+80%	
CCN(CC)CCCN1c2cc(C)c(C)cc2N(C)C(=O)c2ccc(C)nc21.O=C(O)/C=C/C(=O)O [B, 11-(3-Diethylamino-propyl)-6,11-dihydro-2,6,8,9-tetramethyl-5H-pyrido[2,3-b][1,5]benzodiazepin-5-one hydrogen fumarate]	+83%	+44%		9.9 mg/kg
CCN(CC)CCCN1c2ccccc2N(C)C(=O)c2ccc(C)nc21.Cl [A, 11-(3-Diethylamino-propyl)-6,11-dihydro-2,6-dimethyl-5H-pyrido[2,3-b][1,5]benzodiazepin-5-one hydrochloride]	+100%	+44%		15.4 mg/kg
CCN(CCCN1c2ccccc2N(C)C(=O)c2cccnc21)C(C)C [Y, 11-[3-N-ethyl-N-isopropyl-amino)-propyl]-6,11-dihydro-6-methyl-5H-pyrido[2,3-b][1,5]benzodiazepin-5-one hydrochloride]	+10%			30 mg/kg
